For series [1], the target named is T1, ETB receptor (Rattus norvegicus, UniProt P21451).
T1 construct: Rat brain tissue was minced, and a crude receptor membrane sample was prepared; from tissue; host or cells: rat brain crude membranes
T1 sequence (P21451 27-442): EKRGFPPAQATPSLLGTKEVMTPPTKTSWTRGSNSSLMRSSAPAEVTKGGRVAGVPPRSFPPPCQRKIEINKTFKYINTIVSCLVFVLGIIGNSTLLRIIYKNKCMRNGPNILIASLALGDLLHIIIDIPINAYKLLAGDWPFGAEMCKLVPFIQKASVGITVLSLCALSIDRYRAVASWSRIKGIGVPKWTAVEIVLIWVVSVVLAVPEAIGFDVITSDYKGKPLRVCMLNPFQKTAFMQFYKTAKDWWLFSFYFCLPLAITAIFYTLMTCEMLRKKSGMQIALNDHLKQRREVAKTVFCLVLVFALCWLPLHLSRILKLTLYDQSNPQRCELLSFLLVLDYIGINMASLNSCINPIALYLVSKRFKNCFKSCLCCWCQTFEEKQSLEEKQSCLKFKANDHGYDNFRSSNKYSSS
In words: Endothelin binding inhibition experiment, 125I-endothelin-1 binding assay, ETB receptor membrane sample from rat brain. The note with it: 125I-endothelin-1, rat brain membranes. The procedure: (§1) Endothelin Binding Inhibition Experiment
(§2) The thus-obtained membrane sample (1 μl) was incubated together with ^125I-endothelin-1 (2×10^−11 M) and various concentrations of the compounds, for 2 hours at 25° C., in 250 μl in total volume of 50 mM Tris-HCl buffer (pH 7.4) containing 0.5% bovine serum albumin. The incubated mixture was filtered by use of an HVPP filters (pore size 0.45 μm, product of Milipore). The filters were washed with cold buffer A four times, and then measured with a gamma-ray counter (Aroka Autowell Gamma System ARC-251). Preparation of receptor membrane sample (ETB) from rat brain and assay of ^125I endothelin-1:
Rat brain tissue was minced, and a crude receptor membrane sample was prepared in a manner similar to that used in the aforementioned case of porcine thoracic aorta. Also, ^125I-endothelin-1 assay was performed in the same manner as described above.

The target of series [2] is T2, ETA receptor (Sus scrofa, UniProt Q29010).
T2 construct: Porcine thoracic aorta which was separated from the fatty tissue and then was removed endothelium with gauze was minced, and then homogenized; from tissue; host or cells: porcine thoracic aorta smooth muscle membranes
T2 sequence (Q29010 21-427): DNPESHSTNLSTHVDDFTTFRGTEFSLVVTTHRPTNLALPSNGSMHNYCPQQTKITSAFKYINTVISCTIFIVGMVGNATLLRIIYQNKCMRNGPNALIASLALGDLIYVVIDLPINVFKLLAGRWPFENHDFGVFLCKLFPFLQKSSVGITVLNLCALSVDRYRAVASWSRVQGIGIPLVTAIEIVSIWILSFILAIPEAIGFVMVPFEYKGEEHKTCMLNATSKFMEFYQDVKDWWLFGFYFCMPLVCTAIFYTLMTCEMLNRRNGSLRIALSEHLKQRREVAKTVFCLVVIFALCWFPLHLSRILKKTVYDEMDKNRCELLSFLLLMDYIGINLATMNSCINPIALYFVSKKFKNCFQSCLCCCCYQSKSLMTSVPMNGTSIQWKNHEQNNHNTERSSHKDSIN
In words: Endothelin binding inhibition experiment, 125I-endothelin-1 binding assay, ETA receptor membrane samples from smooth muscles of porcine thoracic aorta. The note with it: 125I-endothelin-1 2×10^−11 M, porcine thoracic aorta membranes, 2 hours at 25° C. The procedure: as §1
Preparation of receptor membrane samples (ETA) from smooth muscles of porcine thoracic aorta:
Porcine thoracic aorta which was separated from the fatty tissue and then was removed endothelium with gauze was minced, and then homogenized in three times the volume of Tris-HCl buffer (pH 7.4) (buffer A) containing 0.25 M sucrose, 3 mM ethylenediaminetetraacetic acid, 5 μg/ml of aprotinin, 10 μg/ml of pepstatin A, 10 μg/ml of leupeptin, and 0.1 μM p-amidinophenyl-methanesulfonyl fluoride. After centrifugation for 30 minutes at 1,000×g, the supernatant was further centrifuged for 30 minutes at 100,000×g. The pellets were suspended in buffer A, and recentrifuged for 30 minutes at 100,000×g. The pellets were suspended in buffer A and the suspension was stored at −80° C.
^125I-Endothelin-1 Binding Assay
as §2, with “endothelin-1: […]” for “endothelin-1:”

Counter-ions that a name gives are not always drawn.

The term melting point denotes the temperature of the solid-liquid transition. `COc1ccccc1Oc1c(NS(=O)(=O)c2ccc(C(C)(C)C)cc2)nc(-c2ncccn2)nc1OCCC(=O)Nc1ccccc1` (as salt: sodium) [Compound No. 18, N-phenyl-3-[6-(4-t-butylphenylsulfonylamino)-5-(2-methoxyphenoxy)-2-(2-pyrimidinyl)-4-pyrimidinyloxy]-propionamide] gave a melting point of 162 to 163 °C.

Compound `COc1ccccc1CNC(=O)CCOc1nc(-c2ncccn2)nc(NS(=O)(=O)c2ccc(C(C)(C)C)cc2)c1Oc1ccccc1OC` (as salt: sodium) [Compound No. 34, N-(2-methoxybenzyl)-3-[6-(4-t-butylphenylsulfonylamino)-5-(2-methoxyphenoxy)-2-(2-pyrimidinyl)-4-pyrimidinyloxy]propionamide] had a melting point of 138 to 139 °C.

As for `CCCCCNC(=O)CCOc1nc(-c2ncccn2)nc(NS(=O)(=O)c2ccc(C(C)(C)C)cc2)c1Oc1ccccc1OC` (as salt: sodium) [Compound No. 43, N-(n-pentyl)-3-[6-(4-t-butylphenylsulfonylamino)-5-(2-methoxyphenoxy)-2-(2-pyrimidinyl)-4-pyrimidinyloxy]-propionamide], the melting point was in the range of 142 to 144 °C.

With `COc1ccccc1NC(=O)CCOc1nc(-c2ncccn2)nc(NS(=O)(=O)c2ccc(C(C)(C)C)cc2)c1Oc1ccccc1OC` (as salt: sodium) [Compound No. 48, N-(2-methoxyphenyl)-3-[6-(4-t-butylphenylsulfonylamino)-5-(2-methoxyphenoxy)-2-(2-pyrimidinyl)-4-pyrimidinyloxy]propionamide], the melting point is 120 to 122 °C.

One may read the IC50 as the point on the concentration scale where inhibition reaches its midpoint. Low values mean greater potency in that assay, high ones weaker potency in that assay. Consider `COc1ccccc1Oc1c(NS(=O)(=O)c2ccc(C(C)(C)C)cc2)nc(-c2ncccn2)nc1OCC(=O)O` [Compound No. 2, [6-(4-t-butylphenyl-sulfonylamino)-5-(2-methoxyphenoxy)-2-(2-pyrimidinyl)-4-pyrimidinyloxy]acetic acid], for which the values for the IC50 in series [1] and in series [2] were 0.8 µM and 9.4 µM, respectively.

For `CCOC(=O)CCOc1nc(-c2ncccn2)nc(NS(=O)(=O)c2ccc(C(C)(C)C)cc2)c1Oc1ccccc1OC` [Compound No. 9, ethyl 3-[6-(4-t-butylphenylsulfonylamino)-5-(2-methoxyphenoxy)-2-(2-pyrimidinyl)-4-pyrimidinyloxy]propionate], the IC50 in series [1] worked out at 2.9 µM; in series [2], 0.72 µM.

For the compound `COc1ccccc1Oc1c(NS(=O)(=O)c2ccc(C(C)(C)C)cc2)nc(-c2ncccn2)nc1OCC(=O)OCc1ccccc1` [Compound No. 10, benzyl [6-(4-t-butylphenylsulfonylamino)-5-(2-methoxyphenoxy)-2-(2-pyrimidinyl)-4-pyrimidinyloxy]acetate], the concentration for half-maximal inhibition (IC50) in series [1] turned out to be 0.65 µM; in series [2] it was 0.51 µM.

For `COc1ccccc1Oc1c(NS(=O)(=O)c2ccc(C(C)(C)C)cc2)nc(-c2ncccn2)nc1OCC(=O)Oc1cccc(Cl)c1` [Compound No. 12, 3-chlorophenyl [6-(4-t-butylphenylsulfonylamino)-5-(2-methoxyphenoxy)-2-(2-pyrimidinyl)-4-pyrimidinyloxy]acetate], the IC50 worked out at 0.82 µM in series [1] and 0.32 µM in series [2].

In the case of `COc1ccccc1Oc1c(NS(=O)(=O)c2ccc(C(C)(C)C)cc2)nc(-c2ncccn2)nc1OCCC(=O)NCc1ccccc1` [Compound No. 14, N-benzyl-3-[6-(4-t-butylphenylsulfonylamino)-5-(2-methoxyphenoxy)-2-(2-pyrimidinyl)-4-pyrimidinyloxy]-propionamide], the IC50 in series [1] is 0.0028 µM; in series [2], 0.82 µM.

Consider `COc1ccccc1Oc1c(NS(=O)(=O)c2ccc(C(C)(C)C)cc2)nc(-c2ncccn2)nc1OCC(=O)NCc1ccccc1` [Compound No. 15, N-benzyl-[6-(4-t-butylphenylsulfonylamino)-5-(2-methoxyphenoxy)-2-(2-pyrimidinyl)-4-pyrimidinyloxy]acetamide], for which the IC50 in series [1] was 0.016 µM; in series [2], 3.2 µM.

As for `COc1ccccc1Oc1c(NS(=O)(=O)c2ccc(C(C)(C)C)cc2)nc(-c2ncccn2)nc1OCCC(=O)Nc1ccccc1` [Compound No. 18, N-phenyl-3-[6-(4-t-butylphenylsulfonylamino)-5-(2-methoxyphenoxy)-2-(2-pyrimidinyl)-4-pyrimidinyloxy]-propionamide], the figures for the IC50 in series [1] and in series [2] were 0.023 µM and 0.15 µM, respectively.

`COc1ccccc1Oc1c(NS(=O)(=O)c2ccc(C(C)(C)C)cc2)nc(-c2ncccn2)nc1OCCCC(=O)Nc1ccccc1` [Compound No. 25, N-phenyl-4-[6-(4-t-butylphenylsulfonylamino)-5-(2-methoxyphenoxy)-2-(2-pyrimidinyl)-4-pyrimidinyloxy]butyramide]: the IC50 in series [1] was 0.037 µM; in series [2] it was 1.9 µM.

For the compound `COc1ccccc1NC(=O)CCCOc1nc(-c2ncccn2)nc(NS(=O)(=O)c2ccc(C(C)(C)C)cc2)c1Oc1ccccc1OC` [Compound No. 29, N-(2-methoxyphenyl)-4-[6-(4-t-butylphenylsulfonylamino)-5-(2-methoxyphenoxy)-2-(2-pyrimidinyl)-4-pyrimidinyloxy]-butyramide], the figures for the half-inhibitory concentration (IC50) in series [1] and in series [2] were 0.03 µM and 3.1 µM, respectively.

Take `COc1ccccc1CNC(=O)CCOc1nc(-c2ncccn2)nc(NS(=O)(=O)c2ccc(C(C)(C)C)cc2)c1Oc1ccccc1OC` [Compound No. 34, N-(2-methoxybenzyl)-3-[6-(4-t-butylphenylsulfonylamino)-5-(2-methoxyphenoxy)-2-(2-pyrimidinyl)-4-pyrimidinyloxy]propionamide]: the concentration for half-maximal inhibition (IC50) in series [1] was found to be 0.22 µM; in series [2], 0.39 µM.

Turning to `COc1ccccc1NC(=O)CCOc1nc(-c2ncccn2)nc(NS(=O)(=O)c2ccc(C(C)(C)C)cc2)c1Oc1ccccc1OC` [Compound No. 48, N-(2-methoxyphenyl)-3-[6-(4-t-butylphenylsulfonylamino)-5-(2-methoxyphenoxy)-2-(2-pyrimidinyl)-4-pyrimidinyloxy]propionamide], the IC50 in series [1] was determined as 0.00075 µM; in series [2], 0.16 µM.

`COc1ccccc1Oc1c(NS(=O)(=O)c2ccc(C(C)(C)C)cc2)nc(-c2ncccn2)nc1OCCC(=O)Nc1ccccc1C(C)C` [Compound No. 53, N-(2-isopropylphenyl)-3-[6-(4-t-butylphenylsulfonylamino)-5-(2-methoxyphenoxy)-2-(2-pyrimidinyl)-4-pyrimidinyloxy]propionamide]: the IC50 came to 0.00082 µM in series [1] and 0.098 µM in series [2].

Take `COc1ccccc1Oc1c(NS(=O)(=O)c2ccc(C(C)(C)C)cc2)nc(-c2ncccn2)nc1OCCC(=O)Nc1ccccn1` [Compound No. 92, N-(2-pyridyl)-3-[6-(4-t-butylphenylsulfonylamino)-5-(2-methoxyphenoxy)-2-(2-pyrimidinyl)-4-pyrimidinyloxy]-propionamide]: the 50% inhibitory concentration (IC50) worked out at 0.1 µM in series [1] and 0.0095 µM in series [2].

For the compound “N-(2-chlorophenethyl)-4-[6-(4-t-butylphenylsulfonylamino)-5-(2-methoxyphenoxy)-2-(2-pyrimidinyl)-4-pyrimidinyloxy]-butylamide [Compound No. 38]”, the IC50 in series [1] stood at 0.019 µM; in series [2], 16.9 µM.

The record behind these values is US6337334B1, “Pyrimidine derivatives” (Kowa Co., Ltd., priority 1994, dated 2002).
